Measurements: patent publication EP2803363A1, “The antigen CYBA-72Y/B15 and uses thereof” (Universitätsmedizin der Johannes Gutenberg-Universität Mainz, priority 2013, dated 2014)
Ends that are not written are not given here.

Key:
miniMLLC 2E8 [1] = assay: 20h-IFN-gamma ELISpot assay: recognition of synthetic CYBA peptides loaded on HLA-B*15:01-transfected 293T cells; type: cell-based; details: for peptide recognition by T lymphocytes against CYBA-72Y/B15: summary statement for all T lymphocytes (miniMLLCs), assay not given; for recognition by T cells using an IFN-gamma-ELISpot assay: 293T cells transfected with HLA-B*15:01, loaded with peptide at different concentrations, 2E8 effector cells, Figure 3A
Method: The present invention will now be further described in the following examples with reference to the accompanying figures and sequences, nevertheless, without being limited thereto. For the purposes of the present invention, all references as cited herein are incorporated by reference in their entireties. The Figures and Sequences show: • Figure 1: HLA restriction of miniMLLC 2E8. A) MZ529-EBV-B-cells (5x10^4 cells/well) were co-incubated in the presence of HLA-specific antibodies at concentrations mediating complete blocking of control-T lymphocytes with corresponding HLA restriction, with the miniMLLC 2E8 (1x10^4 cells/TU) in duplicate reactions in a 20h-IFN-gamma ELISpot assay. B) COS-7-cells (2x10^4 cells/well) were transfected with the HLA alleles of patient MZ529-AML and Buffy Coat donor 730 and tested in duplicate reactions for recognition by 2E8 (2x10^4 cells/well) in a 20h-IFN-gamma ELISpot assay. • Figure 2: Fragment analysis of the cDNA clone #428.67.4 for the identification of the peptide-coding region. 3'-fragments with a length difference of one codon (i.e. one amino acid) were generated from the cDNA clone #428.67.4 encoding the full-length CYBA-72Y, and were tested after co-transfection with HLA-B*15:01 into 293T cells (2x10^4 cells/well) in a 20h-IFN-gamma ELISpot assay for recognition by 2E8 (1.5x10^4 cells/well). MZ529-EBV-B cells (5x10^4 cells/well) served as positive control target. • Figure 3: Peptide recognition by the miniMLLC 2E8. (A) For a 20h-IFN-gamma ELISpot assay, 293T cells (2x10^4 cells/well) were transfected with HLA-B*15:01, were loaded with the indicated synthetic CYBA peptides at different concentrations, and were tested in duplicate reactions for recognition by 2E8 (2x10^4 cells/well). (B) For a […]-^51Cr-release assay, HLA-B*15:01-expressing L721.221-cells (2x10^4 cells/well) were loaded with the indicated synthetic CYBA peptides at different concentrations, and co-incubated in duplicate experiments with 2E8 (2x10^4 cells/well). • Figure 4: Recognition of non-malignant hematopoietic cells from HLA-B*15:01-positive BC donors by the CYBA-72Y/B15-specific miniMLLC 2E8. (A) From PBMCs of HLA-B*15:01-positive BC donors, who -with the exception of BC848 - carried at least one CYBA-242T allele (coding for CYBA-72Y), monocytes were purified using plastic adherence and differentiated to mature dendritic cells (mDCs) using cytokines. In duplicates 5x10^4 (BC087, BC848, BC967) or 3x10^4 (BC241, BC048) cells per well were tested for recognition by 2E8 (1.5x10^4 cells/well) in 20h-IFN-gamma ELISpot assays. […]

miniMLLC 2E8 [2] = assay: 48h-51Cr-release assay: synthetic CYBA peptides loaded on HLA-B*15:01-expressing L721.221-cells; type: cell-based; details: HLA-B*15:01-expressing L721.221-cells loaded with peptide at different concentrations; 2E8 effector cells; Figure 3B
Method: The present invention will now be further described in the following examples with reference to the accompanying figures and sequences, nevertheless, without being limited thereto. For the purposes of the present invention, all references as cited herein are incorporated by reference in their entireties. The Figures and Sequences show: • Figure 1: HLA restriction of miniMLLC 2E8. A) MZ529-EBV-B-cells (5x10^4 cells/well) were co-incubated in the presence of HLA-specific antibodies at concentrations mediating complete blocking of control-T lymphocytes with corresponding HLA restriction, with the miniMLLC 2E8 (1x10^4 cells/TU) in duplicate reactions in a 20h-IFN-gamma ELISpot assay. B) COS-7-cells (2x10^4 cells/well) were transfected with the HLA alleles of patient MZ529-AML and Buffy Coat donor 730 and tested in duplicate reactions for recognition by 2E8 (2x10^4 cells/well) in a 20h-IFN-gamma ELISpot assay. • Figure 2: Fragment analysis of the cDNA clone #428.67.4 for the identification of the peptide-coding region. 3'-fragments with a length difference of one codon (i.e. one amino acid) were generated from the cDNA clone #428.67.4 encoding the full-length CYBA-72Y, and were tested after co-transfection with HLA-B*15:01 into 293T cells (2x10^4 cells/well) in a 20h-IFN-gamma ELISpot assay for recognition by 2E8 (1.5x10^4 cells/well). […]

[3] = target: T1, CYBA-72Y (cytochrome b-245 alpha-polypeptide, p22phox; SNP rs4673, tyrosine at position 72) peptide on … (human); assay: cytokine release
T1 peptide: GQKYMTAVV

[4] = target: T2, CYBA-72Y peptide on HLA-B*15:01 (human); assay: cytokine release
T2 peptide: WGQKYMTAVV

GQKHMTAVV [homologous peptide from CYBA-72H, reference compound]
peptide recognition by T lymphocytes against CYBA-72Y/B15 (miniMLLC 2E8 [1]): did not lead to any reactivity

GQKYMTAVV [GQKYMTAVV]
recognition by T cells by means of a 51Cr-(chromium) release test (miniMLLC 2E8 [2]): recognized at lower concentrations | recognition by T cells using an IFN-gamma-ELISpot assay (miniMLLC 2E8 [1]): recognized at lower concentrations | peptide recognition by T lymphocytes against CYBA-72Y/B15 (miniMLLC 2E8 [1]): recognized by all T lymphocytes at the lowest concentration

WGQKYMTAVV [WGQKYMTAVV]
recognition by T cells by means of a 51Cr-(chromium) release test (miniMLLC 2E8 [2]): recognized | recognition by T cells using an IFN-gamma-ELISpot assay (miniMLLC 2E8 [1]): recognized

B1: T-cell receptor cloned from miniMLLC 2D10 (TCR)
alpha TRAV10*01 TRAJ42*01 CDR3: CVVSRIYGGSQGNLIF
beta TRBV20-1*02 TRBJ2-3*01 CDR3: CSARGFSGVTDTQYF
binding result [3]: recognises | binding result [4]: recognises
